Reference: publication PMC11086599, “Cyanobacterial α-carboxysome carbonic anhydrase is allosterically regulated by the Rubisco substrate RuBP” (Science Advances, 2024)
One block for each molecule: values may come before it.

How the values were obtained:
[1] = target: T1, HnCsoSCA (Halothiobacillus neapolitanus, UniProt O85042); conditions: labelled compound; 2.7 mM NaH13C18O3, 50 mM EPPS-NaOH, 20 mM MgCl2, pH 7.8, DTNB; no RuBP needed
T1 construct: gene csoS3

[2] = target: T2, CyCsoSCA (Cyanobium sp. PCC 7001, UniProt Z9Q2N2GQP4, H472Q); test: membrane inlet mass spectrometry […]-exchange CA assay; format: biochemical; conditions: 100 μM RuBP; allosteric activator; same buffer
T2 construct: first 116 residues (disordered N-terminal tail) removed; pHue His-ubiquitin fusion, tag cleaved with USP2; expressed in E. coli; homohexamer (trimer of dimers)
T2 sequence (Z9Q2N2GQP4 117-583 H472Q): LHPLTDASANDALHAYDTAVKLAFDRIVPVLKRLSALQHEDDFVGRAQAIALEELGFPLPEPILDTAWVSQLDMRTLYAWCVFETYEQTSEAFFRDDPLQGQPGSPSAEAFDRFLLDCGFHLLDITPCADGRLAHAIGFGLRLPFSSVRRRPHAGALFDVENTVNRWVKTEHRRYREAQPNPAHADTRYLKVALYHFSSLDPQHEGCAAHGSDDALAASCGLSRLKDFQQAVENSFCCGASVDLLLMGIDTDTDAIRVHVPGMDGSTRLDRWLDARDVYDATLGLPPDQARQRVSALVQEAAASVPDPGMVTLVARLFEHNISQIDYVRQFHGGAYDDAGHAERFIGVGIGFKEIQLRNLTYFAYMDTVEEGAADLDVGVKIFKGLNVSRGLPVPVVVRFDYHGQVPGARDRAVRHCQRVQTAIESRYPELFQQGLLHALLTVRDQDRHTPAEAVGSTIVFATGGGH

[3] = target: T3, CyCsoSCA (Cyanobium sp. PCC 7001, UniProt Z9Q2N2GQP4, T477A); test: as above; format: biochemical; conditions: 100 μM RuBP; allosteric activator; same buffer
T3 construct: first 116 residues (disordered N-terminal tail) removed; pHue His-ubiquitin fusion, tag cleaved with USP2; expressed in E. coli; homohexamer (trimer of dimers)
T3 sequence (Z9Q2N2GQP4 117-583 T477A): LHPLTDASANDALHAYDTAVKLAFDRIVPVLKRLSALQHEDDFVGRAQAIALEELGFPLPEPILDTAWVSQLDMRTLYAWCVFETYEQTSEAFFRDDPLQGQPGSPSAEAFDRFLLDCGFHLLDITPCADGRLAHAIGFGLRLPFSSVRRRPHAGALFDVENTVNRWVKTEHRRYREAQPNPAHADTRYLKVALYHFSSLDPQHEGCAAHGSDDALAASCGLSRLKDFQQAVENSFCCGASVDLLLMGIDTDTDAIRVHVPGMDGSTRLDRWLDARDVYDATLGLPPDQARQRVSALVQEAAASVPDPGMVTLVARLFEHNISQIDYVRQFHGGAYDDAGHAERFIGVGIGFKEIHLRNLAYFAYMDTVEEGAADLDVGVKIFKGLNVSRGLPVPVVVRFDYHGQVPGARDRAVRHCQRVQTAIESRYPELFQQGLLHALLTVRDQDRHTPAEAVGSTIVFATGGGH

[4] = target: T4, CyCsoSCA (Cyanobium sp. PCC 7001, UniProt Z9Q2N2GQP4, K469D); test: as above; format: biochemical; conditions: 100 μM RuBP; allosteric activator; same buffer
T4 construct: first 116 residues (disordered N-terminal tail) removed; pHue His-ubiquitin fusion, tag cleaved with USP2; expressed in E. coli; homohexamer (trimer of dimers)
T4 sequence (Z9Q2N2GQP4 117-583 K469D): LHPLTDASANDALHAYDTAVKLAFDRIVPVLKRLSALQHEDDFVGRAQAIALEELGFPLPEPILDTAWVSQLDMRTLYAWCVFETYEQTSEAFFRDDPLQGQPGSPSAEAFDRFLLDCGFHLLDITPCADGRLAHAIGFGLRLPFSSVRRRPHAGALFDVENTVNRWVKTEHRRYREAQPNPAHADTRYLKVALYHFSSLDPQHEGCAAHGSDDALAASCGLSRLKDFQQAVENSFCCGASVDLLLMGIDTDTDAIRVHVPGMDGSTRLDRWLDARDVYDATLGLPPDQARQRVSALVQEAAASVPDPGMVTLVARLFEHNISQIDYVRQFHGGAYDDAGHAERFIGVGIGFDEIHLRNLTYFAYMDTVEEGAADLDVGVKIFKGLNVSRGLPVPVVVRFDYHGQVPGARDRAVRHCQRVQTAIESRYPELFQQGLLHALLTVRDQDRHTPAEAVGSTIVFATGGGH

[5] = target: T5, CyCsoSCA (Cyanobium sp. PCC 7001, UniProt Z9Q2N2GQP4); test: membrane inlet mass spectrometry […]-exchange CA assay; Hill fit; format: biochemical; conditions: allosteric activator of bicarbonate dehydration/CO2 hydration; sigmoidal, Hill slope 2.214; 2.7 mM labelled bicarbonate, 50 mM EPPS-NaOH, 20 mM MgCl2, pH 7.8; site near dimer interface (R266, K469, R5)
T5 construct: first 116 residues (disordered N-terminal tail) removed; pHue His-ubiquitin fusion, tag cleaved with USP2; expressed in E. coli; homohexamer (trimer of dimers)
T5 sequence (Z9Q2N2GQP4 117-583): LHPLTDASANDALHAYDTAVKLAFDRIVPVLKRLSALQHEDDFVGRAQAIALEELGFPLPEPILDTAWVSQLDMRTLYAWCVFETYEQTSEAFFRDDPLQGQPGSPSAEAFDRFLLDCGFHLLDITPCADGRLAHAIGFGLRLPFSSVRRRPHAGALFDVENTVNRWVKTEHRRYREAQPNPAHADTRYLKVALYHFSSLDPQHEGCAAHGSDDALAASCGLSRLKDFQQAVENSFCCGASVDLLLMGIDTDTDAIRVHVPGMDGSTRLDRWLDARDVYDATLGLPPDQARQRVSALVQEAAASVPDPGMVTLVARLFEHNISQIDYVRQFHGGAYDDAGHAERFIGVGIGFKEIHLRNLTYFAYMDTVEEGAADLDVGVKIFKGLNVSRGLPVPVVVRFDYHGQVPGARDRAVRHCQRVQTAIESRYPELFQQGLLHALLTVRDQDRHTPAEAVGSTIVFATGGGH

[6] = target: Cyanobium sp. PCC7001 CsoSCA (α-carboxysome carbonic anhydrase), truncated form lacking the 116-residue disordered N-terminal region (Cyanobium sp. PCC7001); test: crystal structure; CyCsoSCA co-crystallised with RuBP (RuBP:CyCsoSCA 10:1), 7 mg/ml protein, 0.2 M ammonium sulfate, 0.1 M bis-tris pH 6.5, 21% PEG 3350, 15% ethylene glycol; one hexamer in the asymmetric unit, P212121
[7] = target: Cyanobium sp. PCC7001 CsoSCA (α-carboxysome carbonic anhydrase), truncated form lacking the 116-residue disordered N-terminal region (Cyanobium sp. PCC7001); test: SEC; size exclusion chromatography of the purified protein in solution (fig. S13); conditions of this run not told in the main text
[8] = target: the molecule itself; test: as above

Molecule: O=C(O)O [HCO3^−]
- membrane inlet mass spectrometry 18O-exchange CA assay [1]: HCO3^− dehydration activity was recorded using MIMS after the addition of CsoSCA variants

- EC50 [5]: 18 ± 2 µM
Molecule: O=C(COP(=O)(O)O)[C@H](O)[C@H](O)COP(=O)(O)O [RuBP]
- membrane inlet mass spectrometry 18O-exchange CA assay [2]: H472Q mutation (targeted approach) and T477A (random approach) also resulted in a biphasic activity profile
- membrane inlet mass spectrometry 18O-exchange CA assay [3]: high levels of ligand-independent activity and a notable increase with RuBP
- membrane inlet mass spectrometry 18O-exchange CA assay [4]: a minor increase in activity upon addition of the ligand

- stoichiometry N [6]: 6
- stoichiometry N [7]: 6
Molecule: Cyanobium sp. PCC7001 CsoSCA (α-carboxysome carbonic anhydrase), truncated form lacking the 116-residue disordered N-terminal region (enzyme)

B1: Halothiobacillus neapolitanus CsoSCA (α-carboxysome carbonic anhydrase), truncated form lacking the first 49 residues (enzyme, UniProt O85042 50-514, looked up)
chain: RHPLTDLEANEQLGRCEDSVKNRFDRVIPFLQVVAGIPLGLDYVTRVQELAQSSLGHTLPEELLKDNWISGHNLKGIFGYATAKALTAATEQFSRKIMSEKDDSASAIGFFLDCGFHAVDISPCADGRLKGLLPYILRLPLTAFTYRKAYAGSMFDIEDDLAQWEKNELRRYREGVPNTADQPTRYLKIAVYHFSTSDPTHSGCAAHGSNDRAALEAALTQLMKFREAVENAHCCGASIDILLIGVDTDTDAIRVHIPDSKGFLNPYRYVDNTVTYAQTLHLAPDEARVIIHEAILNANRSDGWAKGNGVASEGMRRFIGQLLINNLSQIDYVVNRHGGRYPPNDIGHAERYISVGDGFDEVQIRNLAYYAHLDTVEENAIDVDVGIKIFTKLNLSRGLPIPIAIHYRYDPNVPGSRERTVVKARRIYNAIKERFSSLDEQNLLQFRLSVQAQDIGSPIEEVASA
notes: CsoSCA carbonic anhydrase of Halothiobacillus neapolitanus, O85042 with the first 49 residues (disordered N-terminal region) removed; codon-optimised for E. coli; also called HnCsoSCA; wild-type HnCsoSCA; source: E. coli NEB T7 Express pLysY, pHue plasmid, purified (HisTrap, USP2 cleavage, second HisTrap, SEC on Superdex 200)
- stoichiometry N [8]: 6
